Laboratory results taken from BigSolDB 2.1.

CN1CCN(C2=Nc3cc(Cl)ccc3Nc3ccccc32)CC1
solubility (mole fraction)
Conditions	278.15 K	283.15 K	288.15 K	293.15 K	298.15 K	303.15 K	308.15 K	313.15 K	318.15 K	323.15 K
in 2-ethoxyethanol	0.0358	0.0391	0.0415	0.0442	0.0476	0.0499	0.053	0.0566	0.0612	0.0666
in 2-methoxyethanol	0.0326	0.0349	0.0366	0.0393	0.0422	0.0451	0.048	0.0508	0.0546	0.0596
in 2-propoxyethanol	0.042	0.0443	0.0463	0.0499	0.0521	0.0548	0.0581	0.0612	0.0637	0.0679
in ethanol	0.00466	0.00535	0.00581	0.0064	0.0072	0.0081	0.00917	0.0105	0.012	0.0134
in ethyl acetate	0.00895	0.01	0.0114	0.0128	0.0146	0.016	0.0181	0.0203	0.0233	0.0265
in methyl acetate	0.00616	0.00707	0.00797	0.0094	0.0108	0.0124	0.0142	0.0164	0.0188	0.022
in n-butanol	0.00644	0.00761	0.00853	0.00972	0.0112	0.0129	0.0145	0.0164	0.0192	0.0217
in n-butyl acetate	0.0121	0.0136	0.0147	0.0164	0.0182	0.02	0.0228	0.0255	0.0276	0.0314
in n-pentanol	0.00737	0.00904	0.0107	0.0121	0.0135	0.0152	0.0177	0.0203	0.0234	0.0264
in n-pentyl acetate	0.0131	0.0143	0.0162	0.0176	0.0198	0.0221	0.024	0.0269	0.0298	0.0334
in n-propanol	0.00577	0.00645	0.00734	0.0083	0.00928	0.0109	0.0123	0.0148	0.0168	0.019
in n-propyl acetate	0.0114	0.0128	0.014	0.0157	0.0174	0.0194	0.0219	0.0246	0.027	0.0305
